# Measurements reported in article PMC9599613 (Biomolecules, 2022).
# What was measured:
# [1] = molecular target: T1, butyrylcholinesterase (BChE) (Equus caballus, UniProt P81908); experiment: Anticholinesterase assay (Ellman's), BChE inhibition; type: biochemical, equine
# T1 construct: butyrylcholinesterase (BChE, obtained from equine serum); from tissue; host or cells: equine serum
# Protocol: (§1) This enzyme method relied on the hydrolytic of acetyl cholinethioiodide (ATChI) by acetylcholinesterase and butyrylthiocholine iodide (BTchI) by butyrylcholinesterase. As a result of this breakdown, 5-thio-2-nitrobenoate anions formed. […] The absorption was measured with a spectrophotometer, as per the protocols. […] An amount of 0.1 M phosphate buffer (8.0 ± 0.1 pH) solution was prepared, whose final pH was adjusted by using the KOH solution.
# (§2) In this assay, 50 µL enzyme solution and 50 µL DTNB reagent were added to 1 mL test samples in a cuvette and then incubated at 30 °C for 15 min. Afterward, a 50 µL substrate solution was added to the mixture.
# [2] = ABTS free radical scavenging assay
# Protocol: The antioxidant potentials of isolated phytosteroids 1 and 2 were also determined using the ABTS (2,2′-azino-bis(3-ethylbenzothiazoline-6-sulfonic acid)) standard method. […] This created free radicals within the sample. Afterward, the addition of 50% methanol and the ABTS radical cation solution were adjusted to pH 7.4 by dilution with the phosphate buffer (pH 7.4). […] The positive control was ascorbic acid, and the assay was repeated in triplicate. The percent radical scavenging potential of the test compounds was calculated using the standard reported formula.
# [3] = DPPH free radical scavenging assay
# Protocol: The antioxidant potentials of isolated compounds (phytosteroids 1 and 2) were determined following the DPPH standard assay. Initially, DPPH (24 mg) was dissolved in methanol (100 mL). Stock solutions of the test compounds were prepared in different dilutions (62.50–1000 μg/mL). From each dilution, 1 mL was mixed with 1 mL of the DPPH solution. The solution mixtures were incubated at room temperature for 0.5 h. Afterward, absorbance was recorded at 517 nm with a UV-visible spectrophotometer. Ascorbic acid was the standard drug, whereas the DPPH solution without the compound was negative control. The percent radical scavenging potential of the test compounds was calculated using the following formula: % DPPH activity=X−X1/X×100 where X = absorbance of the control, and X1 = absorbance of the test compound.
# human recombinant 5-LOX = molecular target: T2, human recombinant 5-LOX (Homo sapiens, UniProt P09917); experiment: biochemical
# T2 sequence (P09917 1-674): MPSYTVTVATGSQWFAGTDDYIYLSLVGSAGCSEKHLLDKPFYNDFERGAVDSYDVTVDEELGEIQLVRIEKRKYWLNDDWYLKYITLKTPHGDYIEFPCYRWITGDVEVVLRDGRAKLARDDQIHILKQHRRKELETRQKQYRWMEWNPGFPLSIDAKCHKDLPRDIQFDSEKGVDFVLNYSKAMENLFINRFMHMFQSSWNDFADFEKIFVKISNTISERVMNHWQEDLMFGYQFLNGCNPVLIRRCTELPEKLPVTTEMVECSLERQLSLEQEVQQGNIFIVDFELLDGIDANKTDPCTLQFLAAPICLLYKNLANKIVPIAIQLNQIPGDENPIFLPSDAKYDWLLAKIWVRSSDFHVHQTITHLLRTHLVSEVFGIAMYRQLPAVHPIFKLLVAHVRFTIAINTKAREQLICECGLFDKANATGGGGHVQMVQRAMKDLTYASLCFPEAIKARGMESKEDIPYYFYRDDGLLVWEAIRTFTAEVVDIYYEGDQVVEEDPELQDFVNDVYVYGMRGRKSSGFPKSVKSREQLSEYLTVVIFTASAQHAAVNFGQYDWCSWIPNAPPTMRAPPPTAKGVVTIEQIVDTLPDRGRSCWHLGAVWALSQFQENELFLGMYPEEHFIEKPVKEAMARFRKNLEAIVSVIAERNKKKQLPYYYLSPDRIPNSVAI
# Protocol: The lipoxygenase assay on our test compounds was performed by utilizing human recombinant 5-LOX [65]. […] The enzyme solution with a concentration of 10,000 U/mL was prepared, whereas 80 mM linoleic acid solution was used as a substrate. Solutions were prepared in a phosphate buffer (50 mM) with a pH of 6.3, which was also utilized as the blank. To start, various concentrations of our test samples were dissolved in 0.25 mL of the buffer, to which 0.25 mL enzyme solution was added and incubated at 25 °C for 5 min. Afterward, the substrate solution (0.1 mL) was added to the mixture and shaken well. […] In this assay, the standard drug was montelukast, and using the following formula, the % inhibitions were calculated: % enzyme inhibition=X−X1/X×100 where X = absorbance of the negative control (with no test sample), and X1 = absorbance of the test compound.
# [4] = molecular target: T3, acetylcholinesterase (AChE) (Electrophorus electricus, UniProt O42275); experiment: Anticholinesterase assay (Ellman's), AChE inhibition; type: biochemical
# T3 construct: acetylcholinesterase (AChE, obtained from Electrophorus electricus); from tissue
# Protocol: as §1, §2
# [5] = 1000 μg/mL, listed as compound 2
# T3 sequence (O42275 24-633): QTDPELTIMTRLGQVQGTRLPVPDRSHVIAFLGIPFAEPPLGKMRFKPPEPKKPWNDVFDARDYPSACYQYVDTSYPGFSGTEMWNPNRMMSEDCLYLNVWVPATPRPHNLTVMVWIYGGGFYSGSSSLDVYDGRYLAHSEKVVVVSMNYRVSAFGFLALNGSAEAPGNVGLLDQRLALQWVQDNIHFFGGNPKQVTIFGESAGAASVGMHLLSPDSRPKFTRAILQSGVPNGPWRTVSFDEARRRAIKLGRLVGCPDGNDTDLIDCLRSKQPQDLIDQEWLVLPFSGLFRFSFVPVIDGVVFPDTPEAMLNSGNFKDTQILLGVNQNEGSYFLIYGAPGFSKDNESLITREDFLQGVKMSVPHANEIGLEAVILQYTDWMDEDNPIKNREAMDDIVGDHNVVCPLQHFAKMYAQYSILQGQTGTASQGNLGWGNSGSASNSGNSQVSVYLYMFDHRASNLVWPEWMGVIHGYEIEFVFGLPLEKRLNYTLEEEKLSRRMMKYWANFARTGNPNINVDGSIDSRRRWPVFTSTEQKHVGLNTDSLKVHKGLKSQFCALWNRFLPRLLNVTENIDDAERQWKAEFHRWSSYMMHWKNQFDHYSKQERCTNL
# T1 sequence (P81908 whole entry): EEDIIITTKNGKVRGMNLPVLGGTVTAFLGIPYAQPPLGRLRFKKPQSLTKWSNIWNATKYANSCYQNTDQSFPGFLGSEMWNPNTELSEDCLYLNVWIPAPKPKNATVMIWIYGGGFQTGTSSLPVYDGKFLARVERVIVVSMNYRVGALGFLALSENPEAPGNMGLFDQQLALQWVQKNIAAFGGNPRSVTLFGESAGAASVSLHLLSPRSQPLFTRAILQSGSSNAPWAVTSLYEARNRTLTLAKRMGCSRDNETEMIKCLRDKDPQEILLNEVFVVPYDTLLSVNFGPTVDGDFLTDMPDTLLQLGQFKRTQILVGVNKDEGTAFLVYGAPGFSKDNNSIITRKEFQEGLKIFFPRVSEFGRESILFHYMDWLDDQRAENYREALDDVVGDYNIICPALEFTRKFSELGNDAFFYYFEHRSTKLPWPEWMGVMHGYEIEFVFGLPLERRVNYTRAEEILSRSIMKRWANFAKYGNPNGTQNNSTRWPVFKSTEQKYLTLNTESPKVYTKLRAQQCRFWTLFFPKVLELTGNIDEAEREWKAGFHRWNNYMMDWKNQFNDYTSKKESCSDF
structure (smiles),measurement,setting,value
"CCC(CCC(C)C1CCC2C3CCC4=CC(=O)CCC4(C)C3CCC12C)C(C)C (centres unmarked) [Compound 2, 17-(5-ethyl-6-methylheptan-2-yl)-10,13-dimethyl-1,2,6,7,8,9,10,11,12,13,14,15,16,17-tetradecahydro-3H-cyclopenta[a]phenanthren-3-one]",IC50,[1],25.8 µM
same,Percent BChE (mean ± SEM),[1]; 62.5 μg/mL,61.35 ± 0.18 %
same,Percent BChE (mean ± SEM),[1]; 125 μg/mL,66.20 ± 0.15 %
same,Percent BChE (mean ± SEM),[1]; 250 μg/mL,73.42 ± 0.11 %
same,Percent BChE (mean ± SEM),[1]; 500 μg/mL,78.62 ± 0.17 %
same,Percent BChE (mean ± SEM),[1]; 1000 μg/mL,83.53 ± 0.20 %
same,ABTS IC50,[2],185.83 µg/mL
same,Percent ABTS Activity (mean ± SEM),[2]; 62.5 μg/mL,41.34 ± 1.01 %
same,Percent ABTS Activity (mean ± SEM),[2]; 125 μg/mL,46.73 ± 0.78 %
same,Percent ABTS Activity (mean ± SEM),[2]; 250 μg/mL,51.37 ± 1.65 %
same,Percent ABTS Activity (mean ± SEM),[2]; 500 μg/mL,57.85 ± 0.97 %
same,Percent ABTS Activity (mean ± SEM),[2]; 1000 μg/mL,65.17 ± 0.72 %
same,Percent ABTS Activity (mean ± SEM),[2]; [5],65.17 ± 0.72%
same,DPPH IC50,[3],218.83 µg/mL
same,Percent DPPH Activity (mean ± SEM),[3]; 62.5 μg/mL,33.00 ± 1.15 %
same,Percent DPPH Activity (mean ± SEM),[3]; 125 μg/mL,42.67 ± 0.89 %
same,Percent DPPH Activity (mean ± SEM),[3]; 250 μg/mL,49.00 ± 0.58 %
same,Percent DPPH Activity (mean ± SEM),[3]; 500 μg/mL,63.03 ± 0.23 %
same,Percent DPPH Activity (mean ± SEM),[3]; 1000 μg/mL,71.33 ± 0.49 %
same,Percent DPPH Activity (mean ± SEM),[3]; [5],71.33 ± 0.49%
same,IC50,human recombinant 5-LOX; read-out: 5-LOX IC50 (converted),21.1 µM
same,inhibition at 62.5 µg/mL,human recombinant 5-LOX; read-out: % 5-LOX Inhibition,63.47 ± 0.56%
same,inhibition at 125 µg/mL,human recombinant 5-LOX; read-out: % 5-LOX Inhibition,67.74 ± 0.61%
same,inhibition at 250 µg/mL,human recombinant 5-LOX; read-out: % 5-LOX Inhibition,73.67 ± 0.61%
same,inhibition at 500 µg/mL,human recombinant 5-LOX; read-out: % 5-LOX Inhibition,78.76 ± 0.58%
same,inhibition at 1000 µg/mL,human recombinant 5-LOX; read-out: % 5-LOX Inhibition,85 ± 0.3%
same,IC50,[4],35.2 µM
same,AChE inhibition (%),[4]; 62.5 μg/mL,58.12 ± 0.34 %
same,AChE inhibition (%),[4]; 125 μg/mL,63.47 ± 0.49 %
same,AChE inhibition (%),[4]; 250 μg/mL,68.75 ± 0.14 %
same,AChE inhibition (%),[4]; 500 μg/mL,75.59 ± 0.30 %
same,AChE inhibition (%),[4]; 1000 μg/mL,80.85 ± 0.18 %
